Laboratory results published in patent US7897602B2, “Indolinone compounds as kinase inhibitors” (Development Center for Biotechnology, priority 2009, dated 2011).

Key:
Format in all cases: biochemical
[1] = molecular target: T1, Aurora A kinase (Homo sapiens, UniProt O14965); assay: Aurora A kinase assay ([γ-33P]ATP, CHOCKtide substrate); details: for inhibition at 1 µM: 1.0 μM test compound
T1 construct: purchased Upstate
T1 sequence (O14965 1-403): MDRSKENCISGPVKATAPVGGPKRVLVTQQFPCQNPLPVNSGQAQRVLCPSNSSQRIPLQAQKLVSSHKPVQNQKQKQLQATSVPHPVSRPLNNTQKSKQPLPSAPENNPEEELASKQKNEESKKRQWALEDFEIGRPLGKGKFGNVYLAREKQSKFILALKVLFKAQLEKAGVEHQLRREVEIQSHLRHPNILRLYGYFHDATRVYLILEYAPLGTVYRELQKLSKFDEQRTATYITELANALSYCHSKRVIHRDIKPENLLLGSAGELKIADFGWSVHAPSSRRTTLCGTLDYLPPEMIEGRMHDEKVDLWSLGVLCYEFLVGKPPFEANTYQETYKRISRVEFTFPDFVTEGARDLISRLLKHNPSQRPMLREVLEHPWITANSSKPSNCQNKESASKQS
Protocol: (§1) Inhibition of Aurora Kinase by the compounds disclosed herein was determined by incubating Aurora kinase, substrate, and a test compound together for a period of time followed by quantifying the resultant phosphorylated product. Specifically, in a well of a 96-well round bottom plate, 25 μL of a reaction mixture containing (1) a test compound disclosed herein (diluted from 9 μM to the desired final concentration), [γ-33P]ATP/ATP mix (10 μM), CHOCKtide (1 μg, Genesis Biotech Inc.), and Aurora-A (1 ng, purchased from Upstate); or (2) a test compound disclosed herein (diluted from 9 μM to the desired final concentration), [γ-33P]ATP/ATP mix (40 μM), CHOCKtide (1 μg, Genesis Biotech Inc.), and Aurora-B (2.5 ng, purchased from Cell signaling); was prepared and incubated at 33° C. for 30 minutes. The reaction was then stopped by adding 5 μL of 3% phosphoric acid. The resultant solution (30 μL) was later harvested by a UniFilter Plate GF/B (PerkinElmer) followed by adding 30 μL of the scintillation cocktail (MicroScint 20, PerkinElmer) to the well. The radioactivity retained on the filter membrane was measured by a luminescence counter (PerkinElmer). IC50 value is defined as the concentration of the test compound which achieves a half-maximal inhibition of the kinase activity.

[2] = molecular target: T2, Aurora B kinase (Homo sapiens, UniProt Q96GD4); assay: Aurora B kinase assay ([γ-33P]ATP, CHOCKtide substrate); details: for inhibition at 1 µM: 1.0 μM test compound
T2 construct: purchased Cell signaling
Protocol: as §1

[3] = molecular target: T3, c-Met kinase (Homo sapiens, UniProt P08581); assay: c-Met kinase assay (33P incorporation into Poly(Glu-Tyr)); details: 500 nM test compound
T3 construct: recombinant N-terminal 6×His-tagged c-Met kinase domain construct expressed from baculovirus; 6xHis (N); made in house
Protocol: Inhibition of c-Met kinase activity by compounds disclosed herein was quantified by measuring the amount of [^33P] incorporated into the substrate in the presence of a test compound. Briefly, a reaction mixture of 25 μL final volume containing 5 ng of c-Met kinase (obtained by purifying recombinant N-terminal 6×His-tagged c-Met kinase domain construct expressed from baculovirus), 1 μg of the substrate (Poly (Glu-Tyr, 4:1, Sigma)), kinase reaction buffer (20 mM MOPS pH 7.0, 1 mM EDTA, 5% glycerol, 0.01% Brij-35, 0.1% β-mercaptoethanol, 1 mg/mL BSA, 100 μM ATP, 0.1 μCi per well [^33P]-γ-ATP (2,500-3,000 Ci/mmol)), and a test compound (500 nM, diluted with 4% DMSO) or DMSO (as the control) was incubated at 30° C. for 30 minutes. The reaction was stopped by adding 5 μL of 3% phosphoric acid solution. The resultant reaction solution was then harvested onto a filter plate (UniFilter-96 GF/B, PerkinElmer), washed 20 times for 5 min with d.d. H2O, and followed by the addition of 30 μL of MicroScint™-20 Cocktail (PerkinElmer). The plate was then sealed and counted using a TopCount scintillation detector (PerkinElmer). The percentage of inhibition rate of the test compound was calculated by dividing the retained radioactivity of the test sample with the retained radioactivity of the control sample and shown in Table 3.

T3 sequence (P08581 1078-1345 limits assumed): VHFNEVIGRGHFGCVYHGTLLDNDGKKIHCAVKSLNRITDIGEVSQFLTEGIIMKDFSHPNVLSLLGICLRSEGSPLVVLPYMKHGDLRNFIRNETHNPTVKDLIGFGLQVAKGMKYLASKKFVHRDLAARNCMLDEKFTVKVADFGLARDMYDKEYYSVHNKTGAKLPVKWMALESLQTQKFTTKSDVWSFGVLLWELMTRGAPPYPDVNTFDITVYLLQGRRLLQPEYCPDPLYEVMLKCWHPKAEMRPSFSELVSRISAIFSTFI
T2 sequence (Q96GD4 whole entry): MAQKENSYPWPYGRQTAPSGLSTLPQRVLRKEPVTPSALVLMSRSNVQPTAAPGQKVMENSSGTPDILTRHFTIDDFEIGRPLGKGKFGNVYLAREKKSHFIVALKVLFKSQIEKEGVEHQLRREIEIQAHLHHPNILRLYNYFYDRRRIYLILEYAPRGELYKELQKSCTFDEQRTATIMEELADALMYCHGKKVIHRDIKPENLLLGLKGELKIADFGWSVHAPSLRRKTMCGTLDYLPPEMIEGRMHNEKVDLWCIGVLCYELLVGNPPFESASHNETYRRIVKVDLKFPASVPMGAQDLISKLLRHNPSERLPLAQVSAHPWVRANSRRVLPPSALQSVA

Row | IC50 [1] | inhibition at 1 µM [1] | IC50 [2] | inhibition at 1 µM [2] | inhibition at 0.5 µM [3] | Structure (SMILES)
1 |  | 48.7% |  | 39.9% | 21.1% | CCOC(=O)CCc1c(/C=C2\C(=O)Nc3ccc(NS(=O)(=O)Cc4ccccc4)cc32)[nH]c2c1C(=O)CCC2 [DCB-70197, (Z)-ethyl 3-(4-oxo-2-((2-oxo-5-(phenylmethylsulfonamido)indolin-3-ylidene)methyl)-4,5,6,7-tetrahydro-1H-indol-3-yl)propanoate]
2 | 60.6 nM | 93.1% | 870 nM | 57.3% | 15.2% | CC(=O)c1c(C)[nH]c(/C=C2\C(=O)Nc3ccc(NS(=O)(=O)c4ccccc4)cc32)c1CCC(=O)O [DCB-70200, (Z)-3-(4-acetyl-5-methyl-2-((2-oxo-5-(phenylsulfonamido)indolin-3-ylidene)methyl)-1H-pyrrol-3-yl)propanoic acid]
3 |  | 48.2% |  | 36.6% | 18.8% | CCOC(=O)CCc1c(/C=C2\C(=O)Nc3ccc(NS(=O)(=O)c4ccccc4)cc32)[nH]c(C)c1C(C)=O [DCB-70201, (Z)-ethyl 3-(4-acetyl-5-methyl-2-((2-oxo-5-(phenylsulfonamido)indolin-3-ylidene)methyl)-1H-pyrrol-3-yl)propanoate]
4 |  | 40.2% |  | 7.3% | 85.2% | CC(=O)c1c(C)[nH]c(/C=C2\C(=O)Nc3ccc(S(=O)(=O)Cc4c(Cl)cccc4Cl)cc32)c1CCC(=O)O [DCB-70202, (Z)-3-(4-acetyl-2-((5-(2,6-dichlorobenzylsulfonyl)-2-oxoindolin-3-ylidene)methyl)-5-methyl-1H-pyrrol-3-yl)propanoic acid]
5 | 823 nM | 62% |  | 54.2% | 9.2% | CN1CCN(C(=O)CCc2c(/C=C3\C(=O)Nc4ccc(NS(=O)(=O)c5ccccc5)cc43)[nH]c3c2C(=O)CCC3)CC1 [DCB-70218, (Z)-N-(3-((3-(3-(4-methylpiperazin-1-yl)-3-oxopropyl)-4-oxo-4,5,6,7-tetrahydro-1H-indol-2-yl)methylene)-2-oxoindolin-5-yl)benzenesulfonamide]
6 |  | 25.7% |  | 14.8% | 17.7% | CC(=O)c1c(C)[nH]c(/C=C2\C(=O)Nc3ccc(NS(=O)(=O)c4ccccc4)cc32)c1CCC(=O)N1CCN(C)CC1 [DCB-70219, (Z)-N-(3-((4-acetyl-5-methyl-3-(3-(4-methylpiperazin-1-yl)-3-oxopropyl)-1H-pyrrol-2-yl)methylene)-2-oxoindolin-5-yl)benzenesulfonamide]

The remaining lines, values behind:

Row | Structure (SMILES) | IC50 [1] | inhibition at 1 µM [1] | IC50 [2] | inhibition at 1 µM [2] | inhibition at 0.5 µM [3]
7 | COc1cccc(S(=O)(=O)Nc2ccc3c(c2)/C(=C/c2[nH]c4c(c2CCC(=O)O)C(=O)CCC4)C(=O)N3)c1 [DCB-70196, (Z)-3-(2-((5-(3-methoxyphenylsulfonamido)-2-oxoindolin-3-ylidene)methyl)-4-oxo-4,5,6,7-tetrahydro-1H-indol-3-yl)propanoic acid] | 61.4 nM | 91.8% | 673 nM | 55.8% | 13.8%
8 | O=C(O)CCc1c(/C=C2\C(=O)Nc3ccc(NS(=O)(=O)Cc4ccccc4)cc32)[nH]c2c1C(=O)CCC2 [DCB-70198, (Z)-3-(4-oxo-2-((2-oxo-5-(phenylmethylsulfonamido)indolin-3-ylidene)methyl)-4,5,6,7-tetrahydro-1H-indol-3-yl)propanoic acid] | 62.8 nM | 96.1% | 402 nM | 69.8% | 20.2%
9 | CC(=O)c1c(C)[nH]c(/C=C2\C(=O)Nc3ccc(S(=O)(=O)Cc4c(Cl)cccc4Cl)cc32)c1CCC(=O)N1CCN(C)CC1 [DCB-70205, (Z)-3-((4-acetyl-5-methyl-3-(3-(4-methylpiperazin-1-yl)-3-oxopropyl)-1H-pyrrol-2-yl)methylene)-5-(2,6-dichlorobenzylsulfonyl)indolin-2-one] |  | 11.3% |  | 2.4% | 97%
10 | CC(=O)c1c(C)[nH]c(/C=C2\C(=O)Nc3ccc(S(=O)(=O)N4CCc5ccccc54)cc32)c1CCC(=O)N1CCN(C)CC1 [DCB-70206, (Z)-3-((4-acetyl-5-methyl-3-(3-(4-methylpiperazin-1-yl)-3-oxopropyl)-1H-pyrrol-2-yl)methylene)-5-(indolin-1-ylsulfonyl)indolin-2-one] |  | 37.4% |  | 21.1% | 77.4%
11 | CC(=O)c1c(C)[nH]c(/C=C2\C(=O)Nc3ccc(F)cc32)c1CCC(=O)N1CCN(C)CC1 [DCB-70207, (Z)-3-((4-acetyl-5-methyl-3-(3-(4-methylpiperazin-1-yl)-3-oxopropyl)-1H-pyrrol-2-yl)methylene)-5-fluoroindolin-2-one] |  | 10.3% |  | 6.8% | 21.1%
12 | CCOC(=O)CCc1c(/C=C2\C(=O)Nc3ccc(S(=O)(=O)Cc4c(Cl)cccc4Cl)cc32)[nH]c2c1C(=O)CCC2 [DCB-70209, (Z)-ethyl 3-(2-((5-(2,6-dichlorobenzylsulfonyl)-2-oxoindolin-3-ylidene)methyl)-4-oxo-4,5,6,7-tetrahydro-1H-indol-3-yl)propanoate] |  | 22.7% |  | 16.3% | 92.1%
13 | CCOC(=O)CCc1c(/C=C2\C(=O)Nc3ccc(S(=O)(=O)N4CCc5ccccc54)cc32)[nH]c2c1C(=O)CCC2 [DCB-70210, (Z)-ethyl 3-(2-((5-(indolin-1-ylsulfonyl)-2-oxoindolin-3-ylidene)methyl)-4-oxo-4,5,6,7-tetrahydro-1H-indol-3-yl)propanoate] | 100 nM | 74.6% |  | 45.5% | 75.3%
14 | CCN(CC)CCNC(=O)CCc1c(/C=C2\C(=O)Nc3ccc(S(=O)(=O)Cc4c(Cl)cccc4Cl)cc32)[nH]c(C)c1C(C)=O [DCB-70212, (Z)-3-(4-acetyl-2-((5-(2,6-dichlorobenzylsulfonyl)-2-oxoindolin-3-ylidene)methyl)-5-methyl-1H-pyrrol-3-yl)-N-(2-(diethylamino)ethyl)propanamide] |  | 3.5% |  | 6.3% | 95.2%
15 | CCN(CC)CCNC(=O)CCc1c(/C=C2\C(=O)Nc3ccc(F)cc32)[nH]c(C)c1C(C)=O [DCB-70213, (Z)-3-(4-acetyl-2-((5-fluoro-2-oxoindolin-3-ylidene)methyl)-5-methyl-1H-pyrrol-3-yl)-N-(2-(diethylamino)ethyl)propanamide] |  | 1% |  | 16.4% | 15.5%
16 | CCN(CC)CCNC(=O)CCc1c(/C=C2\C(=O)Nc3ccc(S(=O)(=O)N4CCc5ccccc54)cc32)[nH]c(C)c1C(C)=O [DCB-70214, (Z)-3-(4-acetyl-2-((5-(indolin-1-ylsulfonyl)-2-oxoindolin-3-ylidene)methyl)-5-methyl-1H-pyrrol-3-yl)-N-(2-(diethylamino)ethyl)propanamide] |  | 15.4% |  | 14.8% | 56.3%
17 | CCN(CC)CCCc1c(/C=C2\C(=O)Nc3ccc(S(=O)(=O)Cc4c(Cl)cccc4Cl)cc32)[nH]c2c1C(=O)CCC2 [DCB-70222, (Z)-5-(2,6-dichlorobenzylsulfonyl)-3-((3-(3-(diethylamino)propyl)-4-oxo-4,5,6,7-tetrahydro-1H-indol-2-yl)methylene)indolin-2-one] |  | 95.7% |  | 83.2% | 95.6%
